Patent US20250381180A1, “METHODS OF TREATING OR PREVENTING OVERACTIVE BLADDER SYNDROME” (Purdue Pharma L.P., priority 2022, published 2025)
“Also recorded” adds a separate entry of the source.

What was measured:
conscious SCI rats = test: Cystometric parameters in conscious spinal cord injury (SCI) rats; assay type: in vivo, rat
Method: Test substance effects were compared to those of the reference substance, the β3-adrenoceptor agonist mirabegron, marketed for overactive bladder.
• At W-5, spinal cord injury was performed at T8 level as described below. • Over W-5, rats were treated daily with gentamicin. • Over W-5 and W-4, bladder was emptied manually once a day. • From W-5 to W0, animals were weighed once per week. • At D-2 (W0), implantation of catheters was performed under isoflurane anaesthesia as described below. • At D0 (W0), cystometry was performed
Rats were anesthetized with isoflurane (3%). Body temperature was constantly maintained at 37° C. throughout the surgery by placing animals on a thermo-regulated hot plate. A laminectomy was performed and the spinal cord was sectioned with microscissors at T8 level. Care was taken to assure that the section was complete by verifying that a slight retraction of the two segments occurred. Then the muscle was sutured and the skin fixed with staples. The scar was cleaned by Vetedine. For the Sham group, the same surgery was performed without section of the spinal cord.
The urinary bladder was squeezed once a day for 14 days with a gentle massage of the abdomen until restoration of the micturition reflex. In addition, they were administered intramuscularly daily for one week with gentamicin (2 mg/mL, 0.2 ml/rat). Animals were euthanized if they reached humane endpoints: weight loss of greater than 20% of their body weight and/or abnormal behavioral changes indicating presence of pain and distress (prostration, self-mutilation, aggressiveness).
Rats were anesthetized with isoflurane (3%). Body temperature was constantly maintained at 37° C. throughout the surgery by placing animals on a thermo-regulated hot plate. A polyethylene catheter (0.58 and 0.96 mm of inner and outer diameters, respectively) was implanted in the bladder through the dome for intravesical pressure recording. Another catheter (0.58 and 0.96 mm of inner and outer diameters, respectively) was implanted in the stomach for intra-gastric administration. Catheters were exteriorized at the scapular level. After surgery, each rat was housed individually up to the end of the protocol with free access to food and water.
Animals were held under partial restraint in a restraining device. Saline was infused into the bladder at a constant flow rate of 2 or 6 mL/h for sham or SCI rats, respectively. After at least 45 min (3 complete micturition cycles corresponding to basal values), test substances were administered by intra-gastric route. Then, intravesical pressure was recorded for 90 min.
The following cystometric parameters were analyzed (see FIG. 10): • Amplitude of micturition (AM, mmHg). • Threshold pressure (ThP, mmHg). • Intercontraction interval (ICI, sec): time between basal pressure and ThP. ICI was not presented due to different infusion rate in sham and SCI rats. ICI was only analyzed to calculate the bladder capacity. • Bladder capacity (BC, mL) BC=ICI×infusion rate. • Amplitude of non voiding contractions (NVC, mmHg) • Frequency of NVC (number per min).
For each cystometric parameter and for each time period, the comparisons were performed as described below: • Basal values of each cystometric parameter of Sham/Vehicle and SCI/Vehicle groups were compared using unpaired student t test • Basal values of each cystometric parameter of all SCI groups were compared using one-way ANOVA or Kruskal-Wallis test • The 3 interval periods of 30 min post treatment of each cystometric parameter within the same group were compared to corresponding basal values using one-way ANOVA with repeated measures or Friedman test followed by Dunnett's or Dunn's post-test, respectively. • The 3 interval periods of 30 min post treatment of each cystometric parameter were compared between all SCI groups using one-way ANOVA or Kruskal Wallis test followed by Holm-Sidak's or Dunn's post-test versus Vehicle, respectively.

conscious BOO rats = test: Cystometric parameters in conscious bladder outlet obstruction (BOO) rats; assay type: in vivo, rat
Method: Test substance effects were compared to those of the reference substance, mirabegron, marketed for overactive bladder.
• At W-6, a partial ligature of the urethra was performed. • At W-6, during 3 consecutive days, rats were treated daily with gentamycin and Ketofen® The bladder was emptied manually once a day. • From W-6 to W-1 animals were monitored and weighed once per week. • At W0 (D-2), catheters were implanted under isoflurane anesthesia. • At D0, cystometry was performed.
Appropriate amount of Cpd (IA) was weighed and dissolved in vehicle to obtain the dosing solution with the target concentration of 3 mg/mL (as free base). […]
[…] Mirabegron (from Kemprotec) was prepared fresh on the day of administration at a final concentration of 2 mg/mL (free base form). Appropriate mass of mirabegron was weighed and dissolved in vehicle (0.5% MC) at room temperature.

[1] = i.g., Cpd (IA) 30 mg/kg, mirabegron 10 mg/kg
[2] = 3 mg/kg i.v., 0-90 min entire period
[3] = 3 mg/kg i.v., 60-90 min interval period
[4] = i.g., 60-90 min interval period

O=C(O)c1nc2ccccc2n([C@H]2C[C@H]3CCC[C@@H](C2)N3C2CC3CCCC(C3)C2)c1=O (stereo partly shown) [Cpd (IA)]
% of variation from basal values of BC (conscious SCI rats; Cpd (IA) 30 mg/kg i.g., 0-30 min interval, mean±s.e.m., vehicle −0.4±15): −35±7% | AM (amplitude of micturition), effect versus basal (conscious SCI rats; [1]): did not significantly modify | AM (mmHg and % variation), effect versus vehicle (conscious SCI rats; [1]): not significantly modified | BC expressed in % variation from basal, effect versus vehicle (conscious SCI rats; [1]): significantly decreased BC for the 0-30 min post-administration interval period; also recorded: significantly reduced BC, compared to vehicle, for the 0-30 min post-administration interval period | BC expressed in mL, effect versus vehicle (conscious SCI rats; [1]): no significant difference | NVC amplitude (mmHg or % variation), effect versus vehicle (conscious SCI rats; [1]): not significantly modified | NVC amplitude, effect versus basal (conscious SCI rats; [1]): significantly decreased NVC amplitude for the 30-60 and 60-90 min post-administration interval periods | NVC frequency (NVC/min and % variation), effect versus vehicle (conscious SCI rats; [1]): not significantly modified | NVC frequency, effect versus basal (conscious SCI rats; [1]): significantly decreased NVC frequency for the 0-30 and 60-90 min interval periods | ThP (mmHg and % variation), effect versus vehicle (conscious SCI rats; [1]): not significantly modified | ThP (threshold pressure), effect versus basal (conscious SCI rats; [1]): no significant effect | BC (bladder capacity), effect versus basal (conscious SCI rats; i.g., Cpd (IA) 30 mg/kg, mirabegron 10 mg/kg, 30-min interval periods to 90 min): significantly decreased BC for the 0-30 and 30-60 min post-administration interval periods | NVC frequency, effect versus basal (conscious SCI rats; i.g., Cpd (IA) 30 mg/kg, mirabegron 10 mg/kg, listed as compound of formula (IA)): significantly decreased NVC frequency compared to basal value for the 0-30 and 60-90 min post-administration interval periods | AM (mmHg or % variation), effect versus vehicle (conscious BOO rats; [2]): not significantly modified | AM, effect versus basal (conscious BOO rats; [2]): did not significantly modify | BC expressed in % variation from basal, effect versus vehicle (conscious BOO rats; [2]): significantly decreased | BC expressed in mL, effect versus vehicle (conscious BOO rats; [2]): no significant difference | NVC amplitude (mmHg and % variation), effect versus vehicle (conscious BOO rats; [2]): not significantly modified | NVC amplitude, effect versus basal (conscious BOO rats; [2]): did not modify | NVC frequency (NVC/min or % variation), effect versus vehicle (conscious BOO rats; [2]): not significantly modified | NVC frequency, effect versus basal (conscious BOO rats; [2]): did not affect | ThP expressed in mmHg, effect versus vehicle (conscious BOO rats; [2]): not significantly modified | ThP, effect versus basal (conscious BOO rats; [2]): no significant effect | ThP expressed in % variation from basal, effect versus vehicle (conscious BOO rats; 3 mg/kg i.v., 0-90 min entire period, p=0.0504): decreased after Cpd (IA) treatment, the p value was close to the significance | AM (mmHg or % variation), effect versus vehicle (conscious BOO rats; [3]): no effect | AM, effect versus basal (conscious BOO rats; [3]): did not significantly modify | BC (mL and % variation), effect versus vehicle (conscious BOO rats; [3]): no significant difference | NVC amplitude (mmHg and % variation), effect versus vehicle (conscious BOO rats; [3]): not significantly modified | NVC amplitude, effect versus basal (conscious BOO rats; [3]): without any effect | NVC frequency (NVC/min or % variation), effect versus vehicle (conscious BOO rats; [3]): unaffected | NVC frequency, effect versus basal (conscious BOO rats; [3]): no significant effect | ThP expressed in % variation from basal, effect versus vehicle (conscious BOO rats; [3]): significantly decreased | ThP expressed in mmHg, effect versus vehicle (conscious BOO rats; [3]): not significantly modified | ThP, effect versus basal (conscious BOO rats; [3]): significantly decreased | BC, effect versus basal (conscious BOO rats; Cpd (IA) 3 mg/kg i.v., 0-90 min entire period): did not significantly modify | BC, effect versus basal (conscious BOO rats; Cpd (IA) 3 mg/kg i.v., 60-90 min interval period): neither vehicle nor Cpd (IA) had a significant effect | % of variation from basal values of BC (conscious BOO rats; Cpd (IA) 30 mg/kg i.g., 0-90 min entire period, vehicle 11±6): −13±6% | AM (mmHg or % variation), effect versus vehicle (conscious BOO rats; i.g., 0-90 min entire period): not significantly modified | AM, effect versus basal (conscious BOO rats; i.g., 0-90 min entire period): did not significantly modify | BC expressed in % variation from basal, effect versus vehicle (conscious BOO rats; i.g., 0-90 min entire period): significantly decreased | BC expressed in mL, effect versus vehicle (conscious BOO rats; i.g., 0-90 min entire period): no significant difference | NVC amplitude expressed in % variation from basal, effect versus vehicle (conscious BOO rats; i.g., 0-90 min entire period): remained unaffected | NVC amplitude expressed in mmHg, effect versus vehicle (conscious BOO rats; i.g., 0-90 min entire period): not significantly modified | NVC amplitude, effect versus basal (conscious BOO rats; i.g., 0-90 min entire period): did not modify | NVC frequency (NVC/min or % variation), effect versus vehicle (conscious BOO rats; i.g., 0-90 min entire period): not significantly modified | NVC frequency, effect versus basal (conscious BOO rats; i.g., 0-90 min entire period): did not affect | ThP expressed in % variation from basal, effect versus vehicle (conscious BOO rats; i.g., 0-90 min entire period): significantly decreased | ThP expressed in mmHg, effect versus vehicle (conscious BOO rats; i.g., 0-90 min entire period): not significantly modified | ThP, effect versus basal (conscious BOO rats; i.g., 0-90 min entire period): did not modify | AM (mmHg or % variation), effect versus vehicle (conscious BOO rats; [4]): no effect | AM, effect versus basal (conscious BOO rats; [4]): did not significantly modify | BC expressed in % variation from basal, effect versus vehicle (conscious BOO rats; [4]): significantly decreased | BC expressed in mL, effect versus vehicle (conscious BOO rats; [4]): no significant difference | NVC amplitude expressed in % variation from basal, effect versus vehicle (conscious BOO rats; [4]): not significantly modified | NVC amplitude expressed in mmHg, effect versus vehicle (conscious BOO rats; [4]): not significantly modified | NVC amplitude, effect versus basal (conscious BOO rats; [4]): without any effect | NVC frequency (NVC/min or % variation), effect versus vehicle (conscious BOO rats; [4]): unaffected | NVC frequency, effect versus basal (conscious BOO rats; [4]): did not affect | ThP expressed in % variation from basal, effect versus vehicle (conscious BOO rats; [4]): significantly decreased | ThP expressed in mmHg, effect versus vehicle (conscious BOO rats; [4]): not significantly modified | ThP, effect versus basal (conscious BOO rats; [4]): significantly decreased | BC, effect versus basal (conscious BOO rats; i.g., Cpd (IA) 30 mg/kg, mirabegron 10 mg/kg, 0-90 min entire period): significantly decreased | BC, effect versus basal (conscious BOO rats; i.g., Cpd (IA) 30 mg/kg, mirabegron 10 mg/kg, 60-90 min interval period): significantly decreased | all other cystometric parameters (than BC and ThP), effect versus vehicle (conscious BOO rats; i.v., conclusions): no effect
